Experimental data published in paper PMC9775191, “A Subset Screen of the Compounds Australia Scaffold Library Identifies 7-Acylaminodibenzoxazepinones as Potent and Selective Hits for Anti-Giardia Drug Discovery” (Biomedicines, 2022).

Tested on: G. duodenalis BRIS/91/HEPU/1279
Experiment: Primary Giardia screen at 10 µM (live-cell imaging, automated counting)
Type: cell-based, Giardia duodenalis
Conditions: for % Inhibition n=1 24h / % Inhibition n=1 48h: first singlicate assay; for % Inhibition n=2 24h / % Inhibition n=2 48h: re-assessment
How it was run: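 Singlicate, 10 μM final, 0.2% DMSO; sealed chambers, 3% O2/5% CO2/N2. Counts by live-cell imaging at 24 h and 48 h. % growth vs vehicle, media background subtracted; Z' per plate.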

SMILES	% Inhibition n=1 48h	also measured
NC(=O)C1=C(Nc2ccccc2)c2ccccc2S1(=O)=O [SN00786825]	65.7%	Average % Inhibition 24h: 12.8%; % Inhibition n=1 24h: 25.7%; % Inhibition n=2 24h: 0.0%; Average % Inhibition 48h: 48.5%; % Inhibition n=2 48h: 31.3%
Cc1ccc2oc(N3CCN(C(=O)C(C)c4ccccc4)CC3)nc2n1 (centres unmarked) [SN00786842]	24.1%	
Cc1cccc(NC(=O)N2CCN(c3cc(C)nc(N4CCCC4)n3)CC2)c1 [SN00786874]	49.3%	Average % Inhibition 24h: 3.5%; % Inhibition n=1 24h: 7.1%; % Inhibition n=2 24h: 0.0%; Average % Inhibition 48h: 39.9%; % Inhibition n=2 48h: 30.5%
COc1ccc(NC(=O)N2CCN(c3cc(C)nc(N4CCOCC4)n3)CC2)cc1 [SN00786878]	44.4%	
C=CCn1c(C)c(CC(=O)Nc2cc(F)ccc2C)c(=O)n2nc(-c3ccccc3)nc12 [SN00786890]	40.6%	
O=C(Nc1ccccc1)c1cc(-c2cccs2)n(C2CCS(=O)(=O)C2)n1 (centres unmarked) [SN00786904]	1.7%	
O=C(c1cccc(Br)c1)N1CCC(c2nc3ccccc3[nH]2)CC1 [SN00786922]	0.0%	
COc1ccccc1OC(C)C(=O)N1N=C2CCCCC2C1(O)C(F)(F)F (centres unmarked) [SN00786959]	13.1%	
CCn1nnc(NCc2ccc(-c3ccccc3)cc2)n1 [SN00786962]	14.2%	
Cc1ccc2nc(-c3ccc(C)c(NC(=O)c4cccnc4)c3)[nH]c2c1 [SN00787045]	8.2%	
COc1ccccc1CCC(=O)N1CCN(c2ncnc3[nH]cnc23)CC1 [SN00787062]	0.0%	
Cn1nc(C(=O)NCCCN2CCN(c3ccccc3)CC2)c2c1-c1ccccc1OC2 [SN00787244]	0.0%	
O=C(Nc1nnc(S(=O)(=O)N2CCc3ccccc32)s1)c1ccccc1 [SN00787260]	37.8%	
Cn1c(C(=O)NCc2ccc(F)cc2)cc2c(=O)n3ccccc3nc21 [SN00787284]	0.0%	
CC1(C(=O)NCc2ccc(F)cc2)Cn2nc(-c3ccco3)cc2C(=O)N1Cc1ccccc1 (centres unmarked) [SN00787370]	13.6%	
COc1ccc(N2C(=O)c3cc(-c4ccco4)nn3CC2(C)C(=O)NC(C)(C)C)cc1 (centres unmarked) [SN00787372]	16.8%	
O=C(NCc1cccc(F)c1)C1CCCN(c2nc3ccccc3n3cccc23)C1 (centres unmarked) [SN00787408]	0.0%	
CCn1cc2c(n1)-c1c(oc(C(=O)Nc3ccc(F)cc3)c1C)CC2 [SN00787412]	6.9%	
Cc1c(C(=O)NCCCN2CCOCC2)oc2c1-c1nn(Cc3ccc(Cl)cc3)cc1CC2 [SN00787421]	1.0%	
CC1(C(=O)NC2CCCCC2)Cn2c(cc3ccccc32)C(=O)N1Cc1ccco1 (centres unmarked) [SN00787436]	0.0%	
O=C(Nc1cc(Cl)ccc1O)c1cc(-c2ccc(F)cc2)no1 [SN00787460]	3.6%	
CC(C(=O)NC1CCCCCC1)n1c(=O)c2cccn2c2cccnc21 (centres unmarked) [SN00787599]	8.7%	

SMILES	% Inhibition n=1 48h	also measured
O=C([C@H]1C[C@H]2CCCN2[C@@]12C(=O)Nc1ccccc12)N1CCN(c2ccccc2)CC1 [SN00787657]	16.0%	
CC1CC(C)CN(CCCNC(=O)C2CC3CCCN3C23C(=O)Nc2ccccc23)C1 (centres unmarked) [SN00787674]	38.8%	
CC1(C(=O)NC2CCCC2)Cn2c(ccc2-c2ccco2)C(=O)N1c1cccc(F)c1 (centres unmarked) [SN00787693]	11.7%	
CC1(C(=O)NCc2ccccc2)Cn2c(ccc2-c2ccco2)C(=O)N1CCc1ccco1 (centres unmarked) [SN00787709]	0.0%	
COc1ccc(-c2noc(CC(=O)N3CCN(c4ccccn4)CC3)n2)cc1 [SN00787724]	23.4%	
Cc1ccc(-n2nnc(-c3nc(-c4ccc5c(c4)OCO5)no3)c2N)cc1 [SN00787754]	0.0%	
CCCn1cc(S(=O)(=O)c2ccc(OC)cc2)c(=O)c2cc(F)c(N3CCC(C)CC3)cc21 [SN00787795]	0.0%	
CCCn1cc(S(=O)(=O)c2ccc(Cl)cc2)c(=O)c2cc(F)c(N3CCOCC3)cc21 [SN00787800]	0.0%	
COc1ccccc1N1CCN(C(=O)c2cc(C3CC3)n[nH]2)CC1 [SN00787811]	0.0%	
CCCCN(CC)CCNC(=O)C1=C(C)C(=O)OC12CCN(CC)CC2 [SN00787839]	0.0%	
CC(=O)N1CCC2(CC1)OC(=O)C(C)=C2C(=O)NC1CC1 [SN00787857]	0.0%	
CC1(C(=O)NC2CCCCCCC2)CN(S(C)(=O)=O)CC(=O)N1c1ccc(F)cc1 (centres unmarked) [SN00787900]	11.9%	
CC1Cc2cc(S(=O)(=O)N3CCn4c3nc3ccccc34)ccc2N1C(=O)C1CCC1 (centres unmarked) [SN00788031]	10.8%	
CC1CC(C)CN(C(=O)Cn2cnc3c(nc4n3CCCCC4)c2=O)C1 (centres unmarked) [SN00788055]	0.0%	
Cc1ccc(NC(=O)Cn2nnc(-c3nc(-c4ccccc4)no3)c2N)cc1C [SN00788081]	2.5%	
Cc1ccc(NC(=O)Cn2nnc(-c3nc(-c4ccncc4)no3)c2N)cc1 [SN00788097]	7.5%	
CCC1Cn2c(C(=O)NCCN(C)C3CCCCC3)cc3cccc(c32)O1 (centres unmarked) [SN00788158]	54.5%	Average % Inhibition 24h: 13.9%; % Inhibition n=1 24h: 11.2%; % Inhibition n=2 24h: 16.5%; Average % Inhibition 48h: 53.7%; % Inhibition n=2 48h: 52.9%
COc1cccc(Nc2nc(N3CCN(c4ccccc4)CC3)nc3c2cnn3C)c1 [SN00788187]	5.8%	
COc1ccc(-c2cc(C(=O)N(C)Cc3ccco3)[nH]n2)cc1 [SN00788220]	44.3%	
CCN(Cc1ccccc1)C(=O)c1cc(-c2ccccc2)n[nH]1 [SN00788230]	36.1%	
CN1C(=O)c2cc(C(=O)NCCCc3ccccc3)nn2CC1(C)C(=O)NC1CCCC1 (centres unmarked) [SN00788236]	0.6%	
O=C(NCCCN1CCN(c2ccccc2)CC1)c1noc2c1CCCCC2 [SN00788368]	9.7%	

SMILES	% Inhibition n=1 48h	also measured
Cc1oc2ncn(C(C)c3ccccc3)c(=O)c2c1C(=O)Nc1ccc(S(N)(=O)=O)nc1 (centres unmarked) [SN00788415]	0.0%	
Cc1ccccc1NC(=O)c1c(C)oc2ncnc(N3CCCCC3)c12 [SN00788425]	15.9%	
Cc1nc(N2CCOCC2)c2c(C(=O)N3CCCC3)c(C)oc2n1 [SN00788445]	0.0%	
CCCCN(CCCC)S(=O)(=O)c1ccc2c(c1)CCCC(=O)N2 [SN00788526]	27.2%	
O=C1CCCc2cc(S(=O)(=O)N3CCN(c4ccccc4)CC3)ccc2N1 [SN00788529]	19.1%	
Cc1noc2ncnc(N3CCCC(C(=O)NC4CCCCCC4)C3)c12 (centres unmarked) [SN00788598]	0.0%	
Cc1noc2ncnc(N3CCCC(C(=O)N4CCCCCC4)C3)c12 (centres unmarked) [SN00788609]	0.0%	
COc1cccc(C(=O)n2nc(-c3cccnc3)nc2NCc2ccc(C)cc2)c1 [SN00788624]	24.5%	
CC(=O)c1ccc(NC(=O)C2CC(=O)N=C(N3CCN(Cc4ccc5c(c4)OCO5)CC3)N2)cc1 (centres unmarked) [SN00788633]	6.8%	
Cn1c(=O)c2c(-c3ccccc3)c(Nc3ccccc3)oc2n(C)c1=O [SN00788641]	9.4%	
COc1cc(-c2c(Nc3ccccc3)oc3c2c(=O)n(C)c(=O)n3C)cc(OC)c1OC [SN00788648]	0.0%	
COc1cc2ccccc2cc1C(=O)Nc1nc2c(s1)CN(Cc1ccccc1)CC2 [SN00788706]	9.9%	
Cc1cccc(N(C)c2ccc3cc(S(=O)(=O)N4CCCC4)ccc3n2)c1 [SN00788730]	7.2%	
Cc1ccsc1CCNC(=O)c1cnn2c(=O)c3c(n(C)c12)CCN(Cc1ccccc1)C3 [SN00788935]	17.0%	
Cc1ccc(-c2nc3ccccc3n2Cc2cccc(F)c2)o1 [SN00788939]	16.3%	
O=C(NCCC1=CCCCC1)c1cccn1-c1cccnc1 [SN00788993]	14.0%	
CC(=O)c1ccc(Nc2ncnc3c2c(C)c(C)n3-c2ccccc2)cc1 [SN00789011]	48.7%	
Cc1c(C)n(-c2ccccc2)c2ncnc(N3CCC(C)CC3)c12 [SN00789013]	35.2%	
Cc1ccc(S(=O)(=O)n2ccn(C(=O)c3ccccc3C)c2=O)cc1 [SN00789027]	0.0%	
COc1ccccc1C(=O)n1ccn(S(=O)(=O)c2ccc(C)cc2)c1=O [SN00789029]	6.3%	
Cc1ccc(Cl)cc1NC(=O)C1CC2CSCN2C12C(=O)Nc1ccccc12 (centres unmarked) [SN00789076]	17.2%	
